The values below come from patent US9771372B2, “Compounds useful as S100-inhibitors” (Active Biotech AB, priority 2014, dated 2017).

Each structure is given as a SMILES string. pIC50: −log10 of the molar value.

This assay concerns the target T1, interaction between biotinylated human S100A9 and human RAGE-Fc (Homo sapiens, UniProt P06702).
T1 construct: made in house; host or cells: E. coli BL21(DE3)/pET1120 (pLR757)
T1 sequence (P06702 1-114): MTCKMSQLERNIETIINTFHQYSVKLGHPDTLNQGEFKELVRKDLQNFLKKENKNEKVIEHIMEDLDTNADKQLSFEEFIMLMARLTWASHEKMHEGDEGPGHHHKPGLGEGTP
Briefly: AlphaScreen inhibition assay, Biot-hS100A9:hRAGE-Fc (S100A9-RAGE inhibition assay). The format is binding. Particulars: biot-hS100A9 and rhRAGE-Fc, Ca2+ and Zn2+ in buffer. The source says: FIG. 1 is a schematic representation of an assay of the inhibition of the interaction between biotinylated human S100A9 and human RAGE-Fc using a small molecule S100A9 binder.
Inhibition Assay, Biot-hS100A9:hRAGE-Fc
The AlphaScreen (Amplified Luminescent Proximity Homogeneous Assay) contains two types of beads, Alpha Donor beads and Acceptor beads (PerkinElmer). Upon laser excitation at 680 nm a photosensitizer in the Donor bead converts ambient oxygen to a more excited singlet state. The singlet oxygen molecule diffuses (maximum 200 nm) to react with a thioxene derivative in the Acceptor bead and generates a chemiluminescence reaction. Fluorophores in the Acceptor bead subsequently emit light at 520-620 nm which can be detected in the EnVision® Multilabel plate Reader (PerkinElmer). The beads are light sensitive and all work with the beads is performed under subdued light conditions or using green filters on light sources (Roscolux Chroma Green #389, Rosco).
In the AlphaScreen Inhibition Assay described here, protein A (Staphylococcus aureus) conjugated Acceptor beads are used together with streptavidin coated Donor beads (Perkin Elmer 6760617M). The Acceptor beads are pre-incubated with Fc-tagged recombinant human RAGE (rhRAGE-Fc) allowing binding of the rhRAGE-Fc to protein A on the beads. Biotinylated human S100A9 (biot-hS100A9) is pre-incubated with the low molecular test compounds. The pre-mixes are then added to the wells of a micro-plate and incubated allowing interaction between biot-hS100A9 and rhRAGE-Fc. Subsequent addition of streptavidin coated Donor beads causes binding of the streptavidin to the biotinylated hS100A9. After an additional incubation the signal is measured.
Without inhibitory compounds, the interaction of biot-hS100A9 to rhRAGE-Fc will bring the Acceptor and Donor beads in close proximity thus generating a high signal. With an inhibitor present the complex will not form resulting in a decreased signal.
The AlphaScreen assay method is used for screening of the inhibitory effect of different compound samples at fixed concentrations or for IC50 determination by varying the compound concentrations. Samples of test compounds and references are prepared from solutions in DMSO. Relevant reference inhibitors and DMSO are used as controls for defined inhibition and non-inhibition, respectively in the assay. The percent inhibition in assay for test compounds and references are calculated by comparing their obtained assay signals with the signal values for the control with only DMSO (no compound).
Assay concentration of biotinylated hS100A9 and rhRAGE-Fc are batch dependent, and are determined and defined by separate cross-titration experiments using this AlphaScreen inhibition method to verify the optimal setup regarding signal strength and achievement of a defined inhibition with relevant reference compounds. The Final assay concentrations of Acceptor and Donor beads are 20 μg/mL.
Assay buffer is prepared by adding CaCl2 and ZnCl2 to HBS-P and is used freshly prepared in the experiment.
Biotin-hS100A9 solution for the experiment is prepared by dilution of appropriate amount of stock solution biot-hS100A9 in assay buffer (with CaCl2 and ZnCl2) and incubation in room temperature for 30 minutes.
rhRAGE-Fc solution for the experiment is prepared by dilution appropriate amount of rhRAGE-Fc stock in assay buffer.
Protein A Acceptor beads are diluted in assay buffer and are added to an equal volume of the prepared diluted rhRAGE-Fc solution. The beads are light sensitive. The vial is covered with aluminum foil and incubated at room temperature in the dark until biot-hS100A9+compound incubation is finished (see below).
Streptavidin-coated Donor beads are diluted in assay buffer. The beads are very light sensitive. The vial is covered with aluminum foil and incubated at room temperature in the dark until use (see below).
Samples of test compounds, appropriate references and DMSO control are diluted in assay buffer. […]
(In general: Alpha assays give light when donor and acceptor beads are brought close together.)
What is called pIC50 is the IC50 on a negative log10 scale, so that one unit is a factor of ten. For the molecule `O=C(NC1(C(F)(F)F)C(=O)Nc2nc3cc(Cl)c(Cl)cc3n21)[C@@H]1CCCN1` (mixture of isomers) [Example 41, (2S)—N-[10,11-dichloro-4-oxo-3-(trifluoromethyl)-2,5,7-triaza-tricyclo[6.4.0.0^2,6]dodeca-1(12),6,8,10-tetraen-3-yl]pyrrolidine-2-carboxamide], the pIC50 was 5.70. The figure for `O=C(CCC1CCCC1)NC1(C(F)(F)F)C(=O)Nc2nc3c(F)cc(F)cc3n21` (stereo not drawn) [Example 86, 3-cyclopentyl-N-[9,11-difluoro-4-oxo-3-(trifluoromethyl)-2,5,7-triazatricyclo-[6.4.0.0^2,6]dodeca-1(12),6,8,10-tetraen-3-yl]propanamide] is 5.19. The figure for `COCCN(C)c1cccc(C(=O)NC2(C(F)(F)F)C(=O)Nc3nc4cc(Cl)c(Cl)cc4n32)n1` (stereo not drawn) [Example 94, N-[10,11-dichloro-4-oxo-3-(trifluoromethyl)-2,5,7-triazatricyclo[6.4.0.0^2,6]dodeca-1(8),6,9,11-tetraen-3-yl]-6-[(2-methoxyethyl)(methyl)amino]pyridine-2-carboxamide] is 5.80.

As for `Cc1cc2nc3n(c2cc1C)C(NC(=O)c1ccc(-c2ccccc2)cc1)(C(F)(F)F)C(=O)N3` (stereo not drawn) [Example 18, N-[10,11-dimethyl-4-oxo-3-(trifluoromethyl)-2,5,7-triazatricyclo[6.4.0.0^2,6]dodeca-1(8),6,9,11-tetraen-3-yl]-4-phenylbenzamide], the pIC50 is 5.70. In the case of `O=C(CC1CCCCC1)NC1(C(F)(F)F)C(=O)Nc2nc3cc(F)c(F)cc3n21` (stereo not drawn) [Example 74, 2-cyclohexyl-N-[10,11-difluoro-4-oxo-3-(trifluoromethyl)-2,5,7-triazatricyclo[6.4.0.0^2,6]-dodeca-1(8),6,9,11-tetraen-3-yl]acetamide], the pIC50 was 5.44.

As for `O=C(NC1(C(F)(F)F)C(=O)Nc2nc3cc(Cl)c(Cl)cc3n21)C1CCCCC1` (stereo not drawn) [Example 55, N-[10,11-dichloro-4-oxo-3-(trifluoromethyl)-2,5,7-triazatricyclo[6.4.0.0^2,6]dodeca-1(12),6,8,10-tetraen-3-yl]cyclohexanecarboxamide], the pIC50 was 5.77. Next, `Cc1cc2nc3n(c2cc1C)C(NC(=O)CCC1CCCC1)(C(F)(F)F)C(=O)N3` (single isomer, unassigned) [Example 218a, 3-cyclopentyl-N-[10,11-dimethyl-4-oxo-3-(trifluoromethyl)-2,5,7-triazatricyclo[6.4.0.0^2,6]dodeca-1(12),6,8,10-tetraen-3-yl]propanamide]: 5.50; `COc1cc2nc3n(c2cc1OC)C(NC(=O)CCC1CCCC1)(C(F)(F)F)C(=O)N3` (stereo not drawn) [Example 76, 3-cyclopentyl-N-[10,11-dimethoxy-4-oxo-3-(trifluoromethyl)-2,5,7-triazatricyclo-[6.4.0.0^2,6]dodeca-1(12),6,8,10-tetraen-3-yl]propanamide]: 4.94. Turning to `O=C(CCC1CCCC1)NC1(C(F)(F)F)C(=O)Nc2nc3ccccc3n21` (stereo not drawn) [Example 9, 3-cyclopentyl-N-[4-oxo-3-(trifluoromethyl)-2,5,7-triazatricyclo[6.4.0.0^2,6]dodeca-1(8),6,9,11-tetraen-3-yl]propanamide], the pIC50 is 4.99. As to `O=C(CCC1CCCC1)NC1(C(F)(F)F)C(=O)Nc2nc3c(-c4ccccc4O)cccc3n21` (stereo not drawn) [Example 198, 3-cyclopentyl-N-[9-(2-hydroxyphenyl)-4-oxo-3-(trifluoromethyl)-2,5,7-triazatricyclo[6.4.0.0^2,6]dodeca-1(12),6,8,10-tetraen-3-yl]propanamide], the pIC50 is 5.71.

For `O=C(NC1(C(F)(F)F)C(=O)Nc2nc3cc(Cl)c(Cl)cc3n21)c1cccc(NCCO)n1` (stereo not drawn) [Example 91, N-[10,11-dichloro-4-oxo-3-(trifluoromethyl)-2,5,7-triazatricyclo[6.4.0.0^2,6]dodeca-1(8),6,9,11-tetraen-3-yl]-6-[(2-hydroxyethyl)amino]pyridine-2-carboxamide], the pIC50 was 6.59.

`COC[C@H](C)Nc1cccc(C(=O)NC2(C(F)(F)F)C(=O)Nc3nc4c(C#N)c(Cl)ccc4n32)n1` (mixture of isomers) [Example 140, N-[10-chloro-9-cyano-4-oxo-3-(trifluoromethyl)-2,5,7-triaza-tricyclo[6.4.0.0^2,6]dodeca-1(8),6,9,11-tetraen-3-yl]-6-{[(2S)-1-methoxypropan-2-yl]amino}-pyridine-2-carboxamide]: the pIC50 is 5.84. As for `CN(C)c1cccc(C(=O)NC2(C(F)(F)F)C(=O)Nc3nc4cc(Cl)c(Cl)cc4n32)n1` (stereo not drawn) [Example 65, N-[10,11-dichloro-4-oxo-3-(trifluoromethyl)-2,5,7-triazatricyclo[6.4.0.0^2,6]dodeca-1(12),6,8,10-tetraen-3-yl]-6-(dimethylamino)pyridine-2-carboxamide], the pIC50 was 5.66.

With `O=C(CN1CCOCC1)NC1(C(F)(F)F)C(=O)Nc2nc3cc(Cl)c(Cl)cc3n21` (stereo not drawn) [Example 60, N-[10,11-dichloro-4-oxo-3-(trifluoromethyl)-2,5,7-triazatricyclo[6.4.0.0^2,6]dodeca-1(12),6,8,10-tetraen-3-yl]-2-(morpholin-4-yl)acetamide], the pIC50 is 5.40.

Take `Cc1cc2nc3n(c2cc1C)C(NC(=O)[C@@H]1CCCN1S(C)(=O)=O)(C(F)(F)F)C(=O)N3` (single isomer, unassigned) [Example 89]: the pIC50 is 5.23.

Consider `Cc1ccc(-c2cccc3c2nc2n3C(NC(=O)CCC3CCCC3)(C(F)(F)F)C(=O)N2)cc1` (stereo not drawn) [Example 202, 3-cyclopentyl-N-[9-(4-methylphenyl)-4-oxo-3-(trifluoromethyl)-2,5,7-triazatricyclo[6.4.0.0^2,6]dodeca-1(12),6,8,10-tetraen-3-yl]propanamide], for which the pIC50 is 6.15.

On to `O=C(CCC1CCCC1)NC1(C(F)(F)F)C(=O)Nc2nc3c(C(=O)O)cccc3n21` (single isomer, unassigned) [Example 231a, 3-(3-cyclopentylpropanamido)-4-oxo-3-(trifluoromethyl)-2,5,7-triazatricyclo[6.4.0.0^2,6]dodeca-1(12),6,8,10-tetraene-9-carboxylic acid], for which the pIC50 is 6.18. For the molecule `Cc1cc2nc3n(c2cc1C)C(NC(=O)CC1CCCCC1)(C(F)(F)F)C(=O)N3` (stereo not drawn) [Example 20, 2-cyclohexyl-N-[10,11-dimethyl-4-oxo-3-(trifluoromethyl)-2,5,7-triazatricyclo-[6.4.0.0^2,6]dodeca-1(8),6,9,11-tetraen-3-yl]acetamide], the pIC50 was 5.77. Turning to `O=C(CCC1CCCC1)NC1(C(F)(F)F)C(=O)Nc2nc3cc(Cl)c(Cl)cc3n21` (single isomer, unassigned) [Example 219a, 3-cyclopentyl-N-[10,11-dichloro-4-oxo-3-(trifluoromethyl)-2,5,7-triazatricyclo[6.4.0.0^2,6]dodeca-1(12),6,8,10-tetraen-3-yl]propanamide], the pIC50 is 6.03. Turning to `COCCNc1nc(C(=O)NC2(C(F)(F)F)C(=O)Nc3nc4c(C#N)c(Cl)ccc4n32)cs1` (stereo not drawn) [Example 139, N-[10-chloro-9-cyano-4-oxo-3-(trifluoromethyl)-2,5,7-triazatricyclo[6.4.0.0^2,6]dodeca-1(8),6,9,11-tetraen-3-yl]-2-[(2-methoxyethyl)amino]-1,3-thiazole-4-carboxamide], the negative-log IC50 (pIC50) was 5.90. On to `O=C(CCC1CCCC1)NC1(C(F)(F)F)C(=O)Nc2nc3c(C(F)(F)F)cc(Br)cc3n21` (stereo not drawn) [Example 129, N-[11-bromo-4-oxo-3,9-bis(trifluoromethyl)-2,5,7-triazatricyclo[6.4.0.0^2,6]dodeca-1(8),6,9,11-tetraen-3-yl]-3-cyclopentylpropanamide], for which the pIC50 was 5.65.
